Results reported in PMC10796410 (Cancer Chemotherapy and Pharmacology, 2023).
Values joined by “and” are separate entries in the source; they are usually repeats but may differ in a detail not shown here. Equal values may be shown once. Read-outs that look alike come from different tables or passages of the source.

Columns and labels:
[1] = Plasma pharmacokinetics of olaparib in rats after a single oral dose, alone or with metformin (UPLC-MS/MS, non-compartmental); assay type: in vivo, Wistar rats; conditions: for concentration at 0.083 h / concentration at 0.167 h / concentration at 0.333 h / concentration at 0.5 h / concentration at 0.75 h / concentration at 1 h / concentration at 2 h / concentration at 3 h / concentration at 4 h / concentration at 6 h / concentration at 8 h / concentration at 10 h / concentration at 12 h / concentration at 24 h / AUC(0-inf) / AUC(0-t) / Cmax / Tmax / Vd/F / k el: male, Wistar, rat, plasma; for concentration at 0.083 h / concentration at 0.167 h / concentration at 0.333 h / concentration at 0.5 h / concentration at 0.75 h / concentration at 1 h / concentration at 2 h / concentration at 3 h / concentration at 4 h / concentration at 6 h / concentration at 8 h / concentration at 10 h / concentration at 12 h / concentration at 24 h: oral, group mean, read-out: Cave_ola; for AUC(0-inf) / AUC(0-t) / Cmax / Tmax / Vd/F / k el: po; for AUC(0-inf) / AUC(0-t) / Cmax / Tmax / Vd/F / k el / Cl/F / t0.5: rat plasma, n = 8, mean ± SD
From the text: All applicable international, national, and/or institutional guidelines for the care and use of animals were followed. The animals were given a standard diet and water ad libitum, and the experimental protocol for this study was approved by the Local Ethics Committee (No. 45/2022, of 27 May 2022), Poznań University of Life Sciences, Department of Animal Physiology and Biochemistry, Wołyńska 35, 60–637 Poznań, Poland. Adult male Wistar rats (weight 380–530 g) were used in the study. The animals were maintained under standard breeding conditions with a 12/12 h light–dark cycle (lights on at 06.00, lights off at 18.00) at constant room temperature (23 ± 2 °C), relative humidity of 55 ± 10% and given ad libitum access to food and water. The animals were allowed to acclimatize for a week before the beginning of the experiments. The rats were divided into three groups. […] The solution for oral metformin administration was prepared in saline at a single dose of 100 mg/kg. Drugs were orally administered to rats by gavage between 7:00 a.m. and 8:00 a.m. […] The blood samples were centrifuged at 5000 rpm for 10 min, and the plasma was transferred to new centrifuge tubes and then stored at – 80 °C.
A Cortecs UPLC C18 column (2.1 × 50 mm, 1.6 µm, Waters Corporation, Milford, MA, USA) was used for chromatographic separation. The column temperature and injection volume were set at 40 °C and 1 µl, respectively. The mobile phase comprised acetonitrile (eluent A) and 2 mM ammonium acetate in water (eluent B) with 0.1% 98–100% formic acid. The flow rate was maintained at 0.3 ml/min. The gradient elution was as follows: 0–3 min, 5% A; […]; 3–5 min, linear from 5 to 95% A; 5–6 min, linear from 95 to 5% A. The mass spectrometer operated in the multiple reaction monitoring mode.
The maximum plasma concentration (Cmax) and the time to reach the Cmax (tmax) were obtained directly from the measured values. All of the above-mentioned parameters underwent statistical analysis.

[2] = tested on: epithelial ovarian cancer cell lines; conditions: drugs given separately or co-administered; cited from earlier work
[3] = tested on: BCRP; parameters: method as in earlier work; conditions: in vitro studies; cited from earlier work
[4] = tested on: OATP1B1; parameters: method as in earlier work; conditions: in vitro studies; cited from earlier work
[5] = tested on: OCT1; parameters: method as in earlier work; conditions: in vitro studies; cited from earlier work
[6] = tested on: OCT2; parameters: method as in earlier work; conditions: in vitro studies; cited from earlier work
[7] = tested on: OAT3; parameters: method as in earlier work; conditions: in vitro studies; cited from earlier work
[8] = tested on: MATE1; parameters: method as in earlier work; conditions: in vitro studies; cited from earlier work
[9] = tested on: MATE2K; parameters: method as in earlier work; conditions: in vitro studies; cited from earlier work
[10] = 100 mg/kg, IIIOLA: olaparib 100 mg/kg b.w. oral single dose alone
[11] = 100 mg/kg, IMET+OLA: metformin 100 mg/kg b.w. + olaparib 100 mg/kg b.w. oral single dose
[12] = IIIOLA: olaparib 100 mg/kg b.w. oral single dose alone
[13] = IMET+OLA: metformin 100 mg/kg b.w. + olaparib 100 mg/kg b.w. oral single dose

O=C(c1cc(Cc2n[nH]c(=O)c3ccccc23)ccc1F)N1CCN(C(=O)C2CC2)CC1 [olaparib, Olaparib]
concentration at 0.083 h ([1]; 100 mg/kg, t 0.083 h, IIIOLA (olaparib alone)): 1080 ng/mL
concentration at 0.167 h ([1]; 100 mg/kg, t 0.167 h, IIIOLA (olaparib alone)): 2220 ng/mL
concentration at 0.333 h ([1]; 100 mg/kg, t 0.333 h, IIIOLA (olaparib alone)): 3790 ng/mL
concentration at 0.5 h ([1]; 100 mg/kg, t 0.500 h, IIIOLA (olaparib alone)): 4590 ng/mL
concentration at 0.75 h ([1]; 100 mg/kg, t 0.750 h, IIIOLA (olaparib alone)): 4440 ng/mL
concentration at 1 h ([1]; 100 mg/kg, t 1 h, IIIOLA (olaparib alone)): 7110 ng/mL
concentration at 2 h ([1]; 100 mg/kg, t 2 h, IIIOLA (olaparib alone)): 6050 ng/mL
concentration at 3 h ([1]; 100 mg/kg, t 3 h, IIIOLA (olaparib alone)): 4140 ng/mL
concentration at 4 h ([1]; 100 mg/kg, t 4 h, IIIOLA (olaparib alone)): 528 ng/mL
concentration at 6 h ([1]; 100 mg/kg, t 6 h, IIIOLA (olaparib alone)): 1460 ng/mL
concentration at 8 h ([1]; 100 mg/kg, t 8 h, IIIOLA (olaparib alone)): 851 ng/mL
concentration at 10 h ([1]; 100 mg/kg, t 10 h, IIIOLA (olaparib alone)): 480 ng/mL
concentration at 12 h ([1]; 100 mg/kg, t 12 h, IIIOLA (olaparib alone)): 196 ng/mL
concentration at 24 h ([1]; 100 mg/kg, t 24 h, IIIOLA (olaparib alone)): 27.2 ng/mL
concentration at 0.083 h ([1]; t 0.083 h, IMET+OLA (metformin and olaparib)): 1530 ng/mL
concentration at 0.167 h ([1]; t 0.167 h, IMET+OLA (metformin and olaparib)): 4270 ng/mL
concentration at 0.333 h ([1]; t 0.333 h, IMET+OLA (metformin and olaparib)): 7190 ng/mL
concentration at 0.5 h ([1]; t 0.500 h, IMET+OLA (metformin and olaparib)): 7240 ng/mL
concentration at 0.75 h ([1]; t 0.750 h, IMET+OLA (metformin and olaparib)): 7770 ng/mL
concentration at 1 h ([1]; t 1 h, IMET+OLA (metformin and olaparib)): 7120 ng/mL
concentration at 2 h ([1]; t 2 h, IMET+OLA (metformin and olaparib)): 6220 ng/mL
concentration at 3 h ([1]; t 3 h, IMET+OLA (metformin and olaparib)): 4080 ng/mL
concentration at 4 h ([1]; t 4 h, IMET+OLA (metformin and olaparib)): 3200 ng/mL
concentration at 6 h ([1]; t 6 h, IMET+OLA (metformin and olaparib)): 1190 ng/mL
concentration at 8 h ([1]; t 8 h, IMET+OLA (metformin and olaparib)): 490 ng/mL
concentration at 10 h ([1]; t 10 h, IMET+OLA (metformin and olaparib)): 155 ng/mL
concentration at 12 h ([1]; t 12 h, IMET+OLA (metformin and olaparib)): 94.4 ng/mL
concentration at 24 h ([1]; t 24 h, IMET+OLA (metformin and olaparib)): 74.8 ng/mL
AUC(0-inf) [1, 10]: 28600 ng·h/mL
AUC(0-t) [1, 10]: 28300 ng·h/mL
Cmax [1, 10]: 8720 ± 6800 ng/mL
Tmax [1, 10]: 1.18 ± 0.91 h
Vd/F [1, 10]: 22.5 ± 24.8 L
k el [1, 10]: 0.000122 s⁻¹
AUC(0-inf) [1, 11]: 29000 ng·h/mL
AUC(0-t) [1, 11]: 28300 ng·h/mL
Cmax [1, 11]: 9420 ± 6330 ng/mL
Tmax [1, 11]: 1.11 ± 0.75 h
Vd/F [1, 11]: 12.5 ± 11.6 L
k el [1, 11]: 9.44e-05 s⁻¹
Cl/F [1, 12]: 7.84 ± 15.21 l/h and 7.84 ± 15.21 (193.9) l/h
t0.5 [1, 12]: 4.79 ± 6.06 (126.5) h
Cl/F [1, 13]: 2.62 ± 2.07 l/h and 2.62 ± 2.07 (79.0) l/h
t0.5 [1, 13]: 3.18 ± 2.28 (71.7) h
C_ola ([1]; t 0.083 h, IMET+OLA (metformin and olaparib), individual rats 9-16): 399.8 ng/mL and 205.5 ng/mL and 1282.8 ng/mL and 2905.9 ng/mL and 1816.4 ng/mL and 1671.7 ng/mL and 346.2 ng/mL and 3579.7 ng/mL
C_ola ([1]; t 0.167 h, IMET+OLA (metformin and olaparib), individual rats 9-16): 735.8 ng/mL and 409.9 ng/mL and 5081.5 ng/mL and 9225.7 ng/mL and 5056.5 ng/mL and 3857.8 ng/mL and 1362.6 ng/mL and 8409.9 ng/mL
C_ola ([1]; t 0.333 h, IMET+OLA (metformin and olaparib), individual rats 9-16): 1895.1 ng/mL and 1378.1 ng/mL and 6639.2 ng/mL and 14659.7 ng/mL and 8931.6 ng/mL and 11236.6 ng/mL and 1385.6 ng/mL and 11426.1 ng/mL
C_ola ([1]; t 0.500 h, IIIOLA (olaparib alone), individual rats 1-8): 3742.4 ng/mL and 535.2 ng/mL and 12507.8 ng/mL and 7237.7 ng/mL and 6302.7 ng/mL and 1652.9 ng/mL and 418.2 ng/mL and 8077.9 ng/mL
C_ola ([1]; t 0.500 h, IMET+OLA (metformin and olaparib), individual rats 9-16): 3714.2 ng/mL and 1709.6 ng/mL and 7002.5 ng/mL and 13973.1 ng/mL and 6376.6 ng/mL and 773.6 ng/mL and 17095.7 ng/mL
C_ola ([1]; t 0.750 h, IIIOLA (olaparib alone), individual rats 1-8): 3804.2 ng/mL and 2586.8 ng/mL and 15300.4 ng/mL and 11009.1 ng/mL and 7991.7 ng/mL and 1511.2 ng/mL and 355.6 ng/mL and 8277 ng/mL
C_ola ([1]; t 0.750 h, IMET+OLA (metformin and olaparib), individual rats 9-16): 3217.4 ng/mL
C_ola ([1]; t 1 h, IIIOLA (olaparib alone), individual rats 1-8): 6130.9 ng/mL and 3469.6 ng/mL and 13706 ng/mL and 16348.7 ng/mL and 9042.2 ng/mL and 1418.9 ng/mL and 698.2 ng/mL and 6102.6 ng/mL
C_ola ([1]; t 2 h, IIIOLA (olaparib alone), individual rats 1-8): 8834.3 ng/mL and 2628.7 ng/mL and 19817.4 ng/mL and 10845 ng/mL and 3432.4 ng/mL and 1456.7 ng/mL and 45.1 ng/mL and 1370.2 ng/mL
C_ola ([1]; t 3 h, IIIOLA (olaparib alone), individual rats 1-8): 10275 ng/mL and 2662.1 ng/mL and 12843.4 ng/mL and 4820.1 ng/mL and 969 ng/mL and 1168.9 ng/mL and 6.7 ng/mL and 409.4 ng/mL
C_ola ([1]; t 4 h, IIIOLA (olaparib alone), individual rats 1-8): 437.9 ng/mL and 948.8 ng/mL and 197 ng/mL
C_ola ([1]; t 6 h, IIIOLA (olaparib alone), individual rats 1-8): 5403.6 ng/mL and 829.1 ng/mL and 4359.8 ng/mL and 822.4 ng/mL and 31.7 ng/mL and 206.3 ng/mL and 4.8 ng/mL and 35.7 ng/mL
C_ola ([1]; t 8 h, IIIOLA (olaparib alone), individual rats 1-8): 2408.4 ng/mL and 295.6 ng/mL and 2024.1 ng/mL and 243.9 ng/mL and 17.4 ng/mL and 116.3 ng/mL
C_ola ([1]; t 10 h, IIIOLA (olaparib alone), individual rats 1-8): 701.7 ng/mL and 75.4 ng/mL and 1071 ng/mL and 70.2 ng/mL
C_ola ([1]; t 12 h, IIIOLA (olaparib alone), individual rats 1-8): 362.3 ng/mL and 53.7 ng/mL and 337 ng/mL and 32.3 ng/mL
C_ola ([1]; t 24 h, IIIOLA (olaparib alone), individual rats 1-8): 34.8 ng/mL and 36.4 ng/mL and 10.4 ng/mL
percentage of late apoptotic cells [2]: 5.1%
inhibition of BCRP [3]: inhibits
inhibition of OATP1B1 [4]: inhibits
inhibition of OCT1 [5]: inhibits
inhibition of OCT2 [6]: inhibits
inhibition of OAT3 [7]: inhibits
inhibition of MATE1 [8]: inhibits
inhibition of MATE2K [9]: inhibits
